Data from ChEMBL document CHEMBL1130683, “Aryl C-glycosides: physiologically stable glycomimetics of sialyl Lewis X” (Bioorg Med Chem Lett, 1998).

Tests used:
E-selectin = biological target: T1, E-selectin (Homo sapiens, UniProt P16581); experiment: Inhibitory activity against Selectin E IgG chimeras binding to sLex coating 96 wells using competitive cell-free ELISA assay was determined.
T1 sequence (P16581 whole entry): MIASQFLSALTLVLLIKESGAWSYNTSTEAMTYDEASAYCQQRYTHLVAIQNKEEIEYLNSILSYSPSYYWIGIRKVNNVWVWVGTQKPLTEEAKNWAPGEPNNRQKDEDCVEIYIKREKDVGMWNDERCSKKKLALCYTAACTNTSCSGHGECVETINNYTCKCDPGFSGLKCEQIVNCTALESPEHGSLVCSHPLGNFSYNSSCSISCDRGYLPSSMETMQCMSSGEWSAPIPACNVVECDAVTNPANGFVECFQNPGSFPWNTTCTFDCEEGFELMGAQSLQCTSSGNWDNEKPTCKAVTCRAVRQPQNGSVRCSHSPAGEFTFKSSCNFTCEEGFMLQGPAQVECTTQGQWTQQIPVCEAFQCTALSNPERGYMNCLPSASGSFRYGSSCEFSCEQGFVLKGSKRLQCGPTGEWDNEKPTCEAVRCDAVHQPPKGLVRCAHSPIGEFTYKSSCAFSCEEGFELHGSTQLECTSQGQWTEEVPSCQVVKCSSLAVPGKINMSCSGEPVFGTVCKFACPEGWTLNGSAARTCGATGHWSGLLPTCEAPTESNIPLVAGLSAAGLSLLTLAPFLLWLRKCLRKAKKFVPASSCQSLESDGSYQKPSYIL

L-selectin = biological target: T2, L-selectin (Homo sapiens, UniProt P14151); experiment: Inhibitory activity against L-selectin IgG chimeras binding to sLex coating 96 wells using competitive cell-free ELISA assay was determined.
T2 sequence (P14151 whole entry): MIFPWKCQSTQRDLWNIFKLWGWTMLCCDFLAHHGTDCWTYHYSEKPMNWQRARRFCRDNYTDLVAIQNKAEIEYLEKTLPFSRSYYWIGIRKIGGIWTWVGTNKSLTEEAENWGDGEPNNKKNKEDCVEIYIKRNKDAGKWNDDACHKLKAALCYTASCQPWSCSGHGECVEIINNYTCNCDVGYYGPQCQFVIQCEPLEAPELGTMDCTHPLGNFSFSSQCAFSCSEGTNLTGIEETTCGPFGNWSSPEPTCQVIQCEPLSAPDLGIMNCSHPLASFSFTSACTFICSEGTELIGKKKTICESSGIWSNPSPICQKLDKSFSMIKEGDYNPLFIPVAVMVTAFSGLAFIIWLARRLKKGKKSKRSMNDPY

P-selectin = biological target: T3, P-selectin (Homo sapiens, UniProt P16109); experiment: Inhibitory activity against P-selectin IgG chimeras binding to sLex coating 96 wells using competitive cell-free ELISA assay was determined.
T3 sequence (P16109 whole entry): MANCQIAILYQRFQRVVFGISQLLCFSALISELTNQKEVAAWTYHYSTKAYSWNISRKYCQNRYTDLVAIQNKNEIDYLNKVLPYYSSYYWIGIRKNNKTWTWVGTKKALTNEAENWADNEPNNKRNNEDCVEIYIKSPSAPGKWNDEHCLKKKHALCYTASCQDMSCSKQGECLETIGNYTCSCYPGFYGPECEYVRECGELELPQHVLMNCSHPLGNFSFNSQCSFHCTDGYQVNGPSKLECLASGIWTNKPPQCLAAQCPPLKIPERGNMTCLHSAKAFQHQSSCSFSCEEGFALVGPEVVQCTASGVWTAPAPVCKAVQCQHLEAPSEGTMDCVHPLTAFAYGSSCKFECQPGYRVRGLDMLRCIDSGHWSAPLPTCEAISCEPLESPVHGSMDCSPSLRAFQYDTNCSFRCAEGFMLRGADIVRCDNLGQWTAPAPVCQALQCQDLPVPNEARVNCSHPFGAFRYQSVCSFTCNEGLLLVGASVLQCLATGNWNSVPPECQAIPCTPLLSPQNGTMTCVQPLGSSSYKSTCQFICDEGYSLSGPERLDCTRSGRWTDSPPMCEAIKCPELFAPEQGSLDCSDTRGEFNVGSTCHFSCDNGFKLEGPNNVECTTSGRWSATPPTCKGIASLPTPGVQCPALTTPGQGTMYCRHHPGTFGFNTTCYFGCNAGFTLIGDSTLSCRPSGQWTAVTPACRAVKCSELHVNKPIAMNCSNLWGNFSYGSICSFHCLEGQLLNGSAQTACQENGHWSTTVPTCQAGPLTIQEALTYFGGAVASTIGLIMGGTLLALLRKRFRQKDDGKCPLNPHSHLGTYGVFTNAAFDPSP

| SMILES | IC50 (E-selectin) [mM] | IC50 (L-selectin) [µM] | IC50 (P-selectin) [µM] |
| --- | --- | --- | --- |
| COc1ccc(CC(=O)O)cc1C1OC(C)C(O)C(O)C1O (stereo unspecified) | > 1 | 3 | 1 |
| COc1ccc(C2(C(=O)O)CCCCC2)cc1[C@H]1O[C@@H](C)[C@H](O)[C@H](O)[C@@H]1O | > 1 | 35 | 22 |
| COc1ccc(C2(C(=O)O)CCCCC2)cc1[C@H]1O[C@@H](C)[C@@H](O)[C@H](O)[C@@H]1O | > 1 | 106 | 7 |

More lines, now with the values ahead:

| IC50 (E-selectin) [mM] | IC50 (L-selectin) [µM] | IC50 (P-selectin) [µM] | SMILES |
| --- | --- | --- | --- |
| > 1 | 1 | 3 | COc1ccc(C2(C(=O)O)CCCCC2)cc1C1OC(CO)C(O)C(O)C1O (stereo unspecified) |
| > 1 | 11 | 8 | COc1ccc(C2(C(=O)O)CCCCC2)cc1C1OCC(O)C(O)C1O (stereo unspecified) |
| > 1 | 114 | 40 | COc1cc(CC(=O)O)c(C2OC(C)C(O)C(O)C2O)c(OC)c1OC (stereo unspecified) |
| > 1 | 170 | 5 | COc1ccc(CCCC(=O)O)cc1C1OC(C)C(O)C(O)C1O (stereo unspecified) |
